Reference: PubChem BioAssay (NCI)
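1) Cells in 96-well plates. 2) Compound, 48 h, 5 concentrations. 3) Linear interpolation between surrounding doses. 4) Unreached endpoint = highest concentration. TGI is the concentration that stops growth completely.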

Columns and labels:
Assay in all cases: DTP human tumour cell line panel, 48 h
HCT-15 colon = test system: HCT-15 colon
SNB-19 CNS = test system: SNB-19 CNS
HS 578T breast = test system: HS 578T breast
SK-MEL-2 melanoma = test system: SK-MEL-2 melanoma
OVCAR-5 ovarian = test system: OVCAR-5 ovarian
LOX IMVI melanoma = test system: LOX IMVI melanoma
NCI/ADR-RES ovarian = test system: NCI/ADR-RES ovarian
SN12C renal = test system: SN12C renal
MOLT-4 leukemia = test system: MOLT-4 leukemia
IGROV1 ovarian = test system: IGROV1 ovarian
MDA-MB-435 = test system: MDA-MB-435
SW-620 colon = test system: SW-620 colon
SNB-75 CNS = test system: SNB-75 CNS
UACC-257 melanoma = test system: UACC-257 melanoma
NCI-H522 lung = test system: NCI-H522 lung
SF-295 CNS = test system: SF-295 CNS
DU-145 prostate = test system: DU-145 prostate
CAKI-1 renal = test system: CAKI-1 renal
COLO 205 colon = test system: COLO 205 colon
T-47D breast = test system: T-47D breast
U251 CNS = test system: U251 CNS
EKVX NSCLC = test system: EKVX NSCLC
MDA-MB-231 breast = test system: MDA-MB-231 breast
SR leukemia = test system: SR leukemia
HCT-116 colon = test system: HCT-116 colon
NCI-H460 lung = test system: NCI-H460 lung
OVCAR-8 ovarian = test system: OVCAR-8 ovarian
HT29 colon = test system: HT29 colon
MDA-N = test system: MDA-N
HOP-62 NSCLC = test system: HOP-62 NSCLC
MCF7 breast = test system: MCF7 breast
A549 NSCLC = test system: A549 NSCLC
786-0 renal = test system: 786-0 renal
M14 melanoma = test system: M14 melanoma
HL-60(TB) leukemia = test system: HL-60(TB) leukemia
RXF 393 renal = test system: RXF 393 renal
PC-3 prostate = test system: PC-3 prostate
K-562 leukemia = test system: K-562 leukemia
BT-549 breast = test system: BT-549 breast
SF-268 CNS = test system: SF-268 CNS
NCI-H23 lung = test system: NCI-H23 lung
HOP-92 NSCLC = test system: HOP-92 NSCLC
HCC-2998 colon = test system: HCC-2998 colon
OVCAR-3 ovarian = test system: OVCAR-3 ovarian
SK-OV-3 ovarian = test system: SK-OV-3 ovarian
MALME-3M melanoma = test system: MALME-3M melanoma
UO-31 renal = test system: UO-31 renal
ACHN renal = test system: ACHN renal
SF-539 CNS = test system: SF-539 CNS
KM12 colon = test system: KM12 colon
OVCAR-4 ovarian = test system: OVCAR-4 ovarian
TK-10 renal = test system: TK-10 renal
SK-MEL-28 melanoma = test system: SK-MEL-28 melanoma
NCI-H226 lung = test system: NCI-H226 lung
SK-MEL-5 melanoma = test system: SK-MEL-5 melanoma
A498 renal = test system: A498 renal
RPMI-8226 leukemia = test system: RPMI-8226 leukemia
CCRF-CEM leukemia = test system: CCRF-CEM leukemia
UACC-62 melanoma = test system: UACC-62 melanoma

## COC(=O)CCC(C)[C@H]1CCC2C3C(C[C@H](OC(C)=O)[C@@]21C)[C@@]1(C)CCC2(C[C@H]1C[C@H]3OC(C)=O)OOC1(CCCCC1)OO2 (stereo not given in full)
HCT-15 colon
  TGI: > 100 µM
SNB-19 CNS
  TGI: > 100 µM
HS 578T breast
  TGI: 63.5 µM
SK-MEL-2 melanoma
  TGI: > 100 µM
OVCAR-5 ovarian
  TGI: > 100 µM
LOX IMVI melanoma
  TGI: > 100 µM
NCI/ADR-RES ovarian
  TGI: > 100 µM
SN12C renal
  TGI: > 100 µM
MOLT-4 leukemia
  TGI: > 100 µM
IGROV1 ovarian
  TGI: 20.8 µM
MDA-MB-435
  TGI: > 100 µM
SW-620 colon
  TGI: > 100 µM
SNB-75 CNS
  TGI: 79.3 µM
UACC-257 melanoma
  TGI: > 100 µM
NCI-H522 lung
  TGI: 60.5 µM
SF-295 CNS
  TGI: 80.4 µM
DU-145 prostate
  TGI: > 100 µM
CAKI-1 renal
  TGI: > 100 µM
COLO 205 colon
  TGI: > 100 µM
T-47D breast
  TGI: > 100 µM
U251 CNS
  TGI: > 100 µM
EKVX NSCLC
  TGI: 18.8 µM
MDA-MB-231 breast
  TGI: > 100 µM
SR leukemia
  TGI: > 100 µM
HCT-116 colon
  TGI: > 100 µM
NCI-H460 lung
  TGI: > 100 µM
OVCAR-8 ovarian
  TGI: > 100 µM
HT29 colon
  TGI: > 100 µM
MDA-N
  TGI: > 100 µM
HOP-62 NSCLC
  TGI: 8.31 µM
MCF7 breast
  TGI: > 100 µM
A549 NSCLC
  TGI: 70.7 µM
786-0 renal
  TGI: 48.6 µM
M14 melanoma
  TGI: > 100 µM
HL-60(TB) leukemia
  TGI: > 100 µM
RXF 393 renal
  TGI: > 100 µM
PC-3 prostate
  TGI: > 100 µM
K-562 leukemia
  TGI: > 100 µM
BT-549 breast
  TGI: > 100 µM
SF-268 CNS
  TGI: > 100 µM
NCI-H23 lung
  TGI: > 100 µM
HOP-92 NSCLC
  TGI: 26.5 µM
HCC-2998 colon
  TGI: > 100 µM
OVCAR-3 ovarian
  TGI: > 100 µM
SK-OV-3 ovarian
  TGI: > 100 µM
MALME-3M melanoma
  TGI: 97.4 µM
UO-31 renal
  TGI: 25.7 µM
ACHN renal
  TGI: 77.3 µM
SF-539 CNS
  TGI: > 100 µM
KM12 colon
  TGI: > 100 µM
OVCAR-4 ovarian
  TGI: 50.9 µM
TK-10 renal
  TGI: > 100 µM
SK-MEL-28 melanoma
  TGI: > 100 µM
NCI-H226 lung
  TGI: > 100 µM
SK-MEL-5 melanoma
  TGI: > 100 µM
A498 renal
  TGI: > 100 µM
RPMI-8226 leukemia
  TGI: 6.43 µM
CCRF-CEM leukemia
  TGI: > 100 µM

## CC1(C)CC2(C)ON=C(c3ccccc3)N2c2ccccc2N1 (stereo not given)
HCT-15 colon
  TGI: > 100 µM
SNB-19 CNS
  TGI: 68.1 µM
HS 578T breast
  TGI: 42.6 µM
SK-MEL-2 melanoma
  TGI: 40.1 µM
OVCAR-5 ovarian
  TGI: > 100 µM
LOX IMVI melanoma
  TGI: 33.8 µM
NCI/ADR-RES ovarian
  TGI: 74.6 µM
SN12C renal
  TGI: 84 µM
MOLT-4 leukemia
  TGI: 75.6 µM
IGROV1 ovarian
  TGI: > 100 µM
MDA-MB-435
  TGI: 39.8 µM
SW-620 colon
  TGI: > 100 µM
SNB-75 CNS
  TGI: 94.9 µM
UACC-257 melanoma
  TGI: 58.3 µM
NCI-H522 lung
  TGI: 47.3 µM
SF-295 CNS
  TGI: > 100 µM
DU-145 prostate
  TGI: > 100 µM
CAKI-1 renal
  TGI: 60.2 µM
COLO 205 colon
  TGI: 45.9 µM
T-47D breast
  TGI: 56.7 µM
U251 CNS
  TGI: 41.1 µM
EKVX NSCLC
  TGI: 77 µM
MDA-MB-231 breast
  TGI: 28.7 µM
SR leukemia
  TGI: > 100 µM
HCT-116 colon
  TGI: 28 µM
NCI-H460 lung
  TGI: 46.9 µM
OVCAR-8 ovarian
  TGI: > 100 µM
HT29 colon
  TGI: 29.9 µM
MDA-N
  TGI: 47.9 µM
HOP-62 NSCLC
  TGI: 37 µM
MCF7 breast
  TGI: 47 µM
A549 NSCLC
  TGI: > 100 µM
786-0 renal
  TGI: 57.3 µM
M14 melanoma
  TGI: 40.6 µM
HL-60(TB) leukemia
  TGI: 56.4 µM
RXF 393 renal
  TGI: 54.5 µM
PC-3 prostate
  TGI: 42.1 µM
K-562 leukemia
  TGI: 52.3 µM
BT-549 breast
  TGI: 36.9 µM
SF-268 CNS
  TGI: 48.2 µM
NCI-H23 lung
  TGI: 82.1 µM
HOP-92 NSCLC
  TGI: 61.4 µM
UACC-62 melanoma
  TGI: 27.9 µM
HCC-2998 colon
  TGI: > 100 µM
OVCAR-3 ovarian
  TGI: 33.7 µM
SK-OV-3 ovarian
  TGI: 53 µM
MALME-3M melanoma
  TGI: 55.3 µM
UO-31 renal
  TGI: 43.6 µM
ACHN renal
  TGI: 68.8 µM
SF-539 CNS
  TGI: 40.1 µM
KM12 colon
  TGI: > 100 µM
OVCAR-4 ovarian
  TGI: > 100 µM
TK-10 renal
  TGI: 91.8 µM
SK-MEL-28 melanoma
  TGI: 57.5 µM
NCI-H226 lung
  TGI: 42.8 µM
SK-MEL-5 melanoma
  TGI: 30.7 µM
A498 renal
  TGI: 54.4 µM
RPMI-8226 leukemia
  TGI: 93 µM
CCRF-CEM leukemia
  TGI: > 100 µM

## CN(C)C(=S)SCC(N)=O
HCT-15 colon
  TGI: > 100 µM
SNB-19 CNS
  TGI: > 100 µM
HS 578T breast
  TGI: > 100 µM
SK-MEL-2 melanoma
  TGI: > 100 µM
OVCAR-5 ovarian
  TGI: > 100 µM
LOX IMVI melanoma
  TGI: > 100 µM
NCI/ADR-RES ovarian
  TGI: > 100 µM
SN12C renal
  TGI: > 100 µM
MOLT-4 leukemia
  TGI: > 100 µM
IGROV1 ovarian
  TGI: > 100 µM
MDA-MB-435
  TGI: > 100 µM
SW-620 colon
  TGI: > 100 µM
SNB-75 CNS
  TGI: > 100 µM
UACC-257 melanoma
  TGI: > 100 µM
NCI-H522 lung
  TGI: > 100 µM
SF-295 CNS
  TGI: > 100 µM
DU-145 prostate
  TGI: > 100 µM
CAKI-1 renal
  TGI: > 100 µM
COLO 205 colon
  TGI: > 100 µM
T-47D breast
  TGI: > 100 µM
U251 CNS
  TGI: > 100 µM
EKVX NSCLC
  TGI: > 100 µM
MDA-MB-231 breast
  TGI: > 100 µM
SR leukemia
  TGI: > 100 µM
HCT-116 colon
  TGI: > 100 µM
NCI-H460 lung
  TGI: > 100 µM
OVCAR-8 ovarian
  TGI: > 100 µM
HT29 colon
  TGI: > 100 µM
MDA-N
  TGI: > 100 µM
HOP-62 NSCLC
  TGI: > 100 µM
MCF7 breast
  TGI: > 100 µM
A549 NSCLC
  TGI: > 100 µM
786-0 renal
  TGI: > 100 µM
M14 melanoma
  TGI: > 100 µM
HL-60(TB) leukemia
  TGI: > 100 µM
RXF 393 renal
  TGI: > 100 µM
PC-3 prostate
  TGI: > 100 µM
K-562 leukemia
  TGI: > 100 µM
BT-549 breast
  TGI: > 100 µM
SF-268 CNS
  TGI: > 100 µM
NCI-H23 lung
  TGI: > 100 µM
HOP-92 NSCLC
  TGI: > 100 µM
UACC-62 melanoma
  TGI: > 100 µM
HCC-2998 colon
  TGI: > 100 µM
OVCAR-3 ovarian
  TGI: > 100 µM
SK-OV-3 ovarian
  TGI: > 100 µM
MALME-3M melanoma
  TGI: > 100 µM
ACHN renal
  TGI: > 100 µM
SF-539 CNS
  TGI: > 100 µM
KM12 colon
  TGI: > 100 µM
OVCAR-4 ovarian
  TGI: > 100 µM
TK-10 renal
  TGI: > 100 µM
SK-MEL-28 melanoma
  TGI: > 100 µM
NCI-H226 lung
  TGI: > 100 µM
SK-MEL-5 melanoma
  TGI: > 100 µM
A498 renal
  TGI: > 100 µM
RPMI-8226 leukemia
  TGI: > 100 µM
CCRF-CEM leukemia
  TGI: > 100 µM
